Measured values reported in patent publication US20240101531A1, “PYRIDINAMINE DERIVATIVES AND THEIR USE AS POTASSIUM CHANNEL MODULATORS” (Xenon Pharmaceuticals Inc., priority 2022, published 2024).
Where a name gives a salt, the structure may show the parent alone.

The molecules below were run against human KV7.2/KV7.3 (Homo sapiens (Human), UniProt O43525+O43526) (assay: Potassium flux assay (IPG-2 AM dye)). Conditions: TREX HEK 293 or HEK 293 cells expressing human KV7.2/KV7.3; arithmetic mean values.
Format: cell-based
How it was run: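 HEK 293 or TREX HEK 293 cells stably expressing human KV7.2/KV7.3 (tetracycline-induced where needed), loaded with IPG-2 AM, then compound for 20 min at room temperature. Flux triggered by K challenge buffer (10 mM KCl, pH 7.4), read at 530/558 nm; EC50 from 16-point 2-fold series from 30 μM, normalised to DMSO and reference modulator.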

Compound	EC50
C#CC(C)(C)COc1ccc2c(Nc3ccc(Cl)nc3)nccc2c1 [Example 136, N-(6-chloropyridin-3-yl)-6-((2,2-dimethylbut-3-yn-1-yl)oxy)isoquinolin-1-amine]	1 to 10 µM
Clc1ccc(Nc2nccc3cc(OCC4(C5CC5)CC4)ccc23)cn1 [Example 137, 6-([1,1′-bi(cyclopropan)]-1-ylmethoxy)-N-(6-chloropyridin-3-yl)isoquinolin-1-amine]	< 1 µM
Clc1ccc(Nc2nccc3cc(O[C@@H]4CCC5(COC5)C4)ccc23)cn1 [Example 138, (R)-6-((2-oxaspiro[3.4]octan-6-yl)oxy)-N-(6-chloropyridin-3-yl)isoquinolin-1-amine]	< 1 µM
C[C@@H](Oc1ccc2c(Nc3ccc(Cl)nc3)nccc2c1)C1(F)CC1 [Example 139, (R)-N-(6-chloropyridin-3-yl)-6-(1-(1-fluorocyclopropyl)ethoxy)isoquinolin-1-amine]	1 to 10 µM
C[C@H](Oc1ccc2c(Nc3ccc(Cl)nc3)nccc2c1)C1(F)CC1 [Example 140, (S)-N-(6-chloropyridin-3-yl)-6-(1-(1-fluorocyclopropyl)ethoxy)isoquinolin-1-amine]	< 1 µM
FC1(COc2ccc3c(Nc4ccc(Cl)nc4)nccc3c2)CCC1 [Example 141, N-(6-chloropyridin-3-yl)-6-((1-fluorocyclobutyl)methoxy)isoquinolin-1-amine]	1 to 10 µM
CN(c1cnc(Cl)nc1)c1nccc2cc(OCC3(F)CC3)ccc12 [Example 144, N-(2-chloropyrimidin-5-yl)-6-((1-fluorocyclopropyl)methoxy)-N-methylisoquinolin-1-amine]	≥ 30 µM
N#CC(F)(COc1ccc2c(Nc3cnc(Cl)nc3)nccc2c1)C1CC1 (centres unmarked) [Example 146, 3-((1-((2-chloropyrimidin-5-yl)amino)isoquinolin-6-yl)oxy)-2-cyclopropyl-2-fluoropropanenitrile]	< 1 µM
N#CCC1(COc2ccc3c(Nc4cnc(Cl)nc4)nccc3c2)CC1 [Example 147, 2-(1-(((1-((2-chloropyrimidin-5-yl)amino)isoquinolin-6-yl)oxy)methyl)cyclopropyl)acetonitrile]	< 1 µM
C[C@]1(O)CCC[C@@H](Oc2ccc3c(Nc4ccc(Cl)nc4)nccc3c2)C1 [Example 148, (1S,3R)-3-((1-((6-chloropyridin-3-yl)amino)isoquinolin-6-yl)oxy)-1-methylcyclohexan-1-ol]	< 1 µM
C[C@@]1(O)CCC[C@H](Oc2ccc3c(Nc4ccc(Cl)nc4)nccc3c2)C1 [Example 149, (1R,3S)-3-((1-((6-chloropyridin-3-yl)amino)isoquinolin-6-yl)oxy)-1-methylcyclohexan-1-ol]	< 1 µM
Cn1ccc(COc2ccc3c(Nc4ccc(Cl)nc4)nccc3c2)n1 [Example 150, N-(6-chloropyridin-3-yl)-6-((1-methyl-1H-pyrazol-3-yl)methoxy)isoquinolin-1-amine]	< 1 µM
C#CC1(COc2ccc3c(Nc4ccc(Cl)nc4)nccc3c2)CC1 [Example 151, N-(6-chloropyridin-3-yl)-6-((1-ethynylcyclopropyl)methoxy)isoquinolin-1-amine]	< 1 µM
CC(C)C1(COc2ccc3c(Nc4ccc(Cl)nc4)nccc3c2)COC1 [Example 152, N-(6-chloropyridin-3-yl)-6-((3-isopropyloxetan-3-yl)methoxy)isoquinolin-1-amine]	< 1 µM
OC1CC2(C1)CC(Oc1ccc3c(Nc4ccc(Cl)nc4)nccc3c1)C2 (centres unmarked) [Example 153, 6-((1-((6-chloropyridin-3-yl)amino)isoquinolin-6-yl)oxy)spiro[3.3]heptan-2-ol]	< 1 µM
Clc1ccc(Nc2nccc3cc(OCC4COCCO4)ccc23)cn1 (centres unmarked) [Example 154, 6-((1,4-dioxan-2-yl)methoxy)-N-(6-chloropyridin-3-yl)isoquinolin-1-amine]	< 1 µM
OCC(F)(F)COc1ccc2c(Nc3ccc(Cl)nc3)nccc2c1 [Example 155, 3-((1-((6-chloropyridin-3-yl)amino)isoquinolin-6-yl)oxy)-2,2-difluoropropan-1-ol]	1 to 10 µM
Cc1oncc1COc1ccc2c(Nc3ccc(Cl)nc3)nccc2c1 [Example 156, N-(6-chloropyridin-3-yl)-6-((5-methylisoxazol-4-yl)methoxy)isoquinolin-1-amine]	< 1 µM
Clc1ccc(Nc2nccc3cc(OCc4ccno4)ccc23)cn1 [Example 157, N-(6-chloropyridin-3-yl)-6-(isoxazol-5-ylmethoxy)isoquinolin-1-amine]	< 1 µM
Clc1ccc(Nc2nccc3cc(OCc4cnc(Cc5cccnc5)o4)ccc23)cn1 [Example 158, N-(6-chloropyridin-3-yl)-6-((2-(pyridin-3-ylmethyl)oxazol-5-yl)methoxy)isoquinolin-1-amine]	1 to 10 µM
C[C@@H](COc1ccc2c(Nc3ccc(Cl)nc3)nccc2c1)c1cnn(C)c1 [Example 159, (R)—N-(6-chloropyridin-3-yl)-6-(2-(1-methyl-1H-pyrazol-4-yl)propoxy)isoquinolin-1-amine]	1 to 10 µM

Compound	EC50
C[C@H](COc1ccc2c(Nc3ccc(Cl)nc3)nccc2c1)c1cnn(C)c1 [Example 160, (S)—N-(6-chloropyridin-3-yl)-6-(2-(1-methyl-1H-pyrazol-4-yl)propoxy)isoquinolin-1-amine]	1 to 10 µM
CC#CC(C)(C)COc1ccc2c(Nc3ccc(Cl)nc3)nccc2c1 [Example 161, N-(6-chloropyridin-3-yl)-6-((2,2-dimethylpent-3-yn-1-yl)oxy)isoquinolin-1-amine]	1 to 10 µM
CNc1cc(Nc2nccc3cc(OCC4(C)COC4)ccc23)cnc1Cl [Example 162, 2-chloro-N^3-methyl-N^5-(6-((3-methyloxetan-3-yl)methoxy)isoquinolin-1-yl)pyridine-3,5-diamine]	< 1 µM
CC1(COc2ccc3c(Nc4cnc(Cl)c(N)c4)nccc3c2)COC1 [Example 163, 2-chloro-N^5-(6-((3-methyloxetan-3-yl)methoxy)isoquinolin-1-yl)pyridine-3,5-diamine]	< 1 µM
Cc1nn(C)cc1COc1ccc2c(Nc3ccc(Cl)nc3)nccc2c1 [Example 165, N-(6-chloropyridin-3-yl)-6-((1,3-dimethyl-1H-pyrazol-4-yl)methoxy)isoquinolin-1-amine]	< 1 µM
COc1nn(C)cc1COc1ccc2c(Nc3ccc(Cl)nc3)nccc2c1 [Example 166, N-(6-chloropyridin-3-yl)-6-((3-methoxy-1-methyl-1H-pyrazol-4-yl)methoxy)isoquinolin-1-amine]	< 1 µM
Cc1ncsc1C(=O)N[C@H]1CC[C@@H](Oc2ccc3c(Nc4ccc(Cl)nc4)nccc3c2)CC1 [Example 167, N-((1s,4s)-4-((1-((6-chloropyridin-3-yl)amino)isoquinolin-6-yl)oxy)cyclohexyl)-4-methylthiazole-5-carboxamide]	1 to 10 µM
Clc1ccc(Nc2nccc3cc(OCCCCCn4cncn4)ccc23)cn1 [Example 168, 6-((5-(1H-1,2,4-triazol-1-yl)pentyl)oxy)-N-(6-chloropyridin-3-yl)isoquinolin-1-amine]	1 to 10 µM
Cc1ncc(Nc2nccc3cc(OC(C)c4cnn(C)c4)ccc23)cn1 (centres unmarked) [Example 169, 6-(1-(1-methyl-1H-pyrazol-4-yl)ethoxy)-N-(2-methylpyrimidin-5-yl)isoquinolin-1-amine]	1 to 10 µM
C[C@@H](Oc1ccc2c(Nc3ccc(Cl)nc3)nccc2c1)c1cnn(C)c1 [Example 171, (R)—N-(6-chloropyridin-3-yl)-6-(1-(1-methyl-1H-pyrazol-4-yl)ethoxy)isoquinolin-1-amine]	< 1 µM
C[C@H](Oc1ccc2c(Nc3ccc(Cl)nc3)nccc2c1)c1cnn(C)c1 [Example 172, (S)—N-(6-chloropyridin-3-yl)-6-(1-(1-methyl-1H-pyrazol-4-yl)ethoxy)isoquinolin-1-amine]	< 1 µM
Cc1nn(C)cc1[C@@H](C)Oc1ccc2c(Nc3ccc(Cl)nc3)nccc2c1 [Example 174, (R)—N-(6-chloropyridin-3-yl)-6-(1-(1,3-dimethyl-1H-pyrazol-4-yl)ethoxy)isoquinolin-1-amine]	1 to 10 µM
Cc1nn(C)cc1[C@H](C)Oc1ccc2c(Nc3ccc(Cl)nc3)nccc2c1 [Example 175, (S)—N-(6-chloropyridin-3-yl)-6-(1-(1,3-dimethyl-1H-pyrazol-4-yl)ethoxy)isoquinolin-1-amine]	1 to 10 µM
CC(C)C(C)(N)COc1ccc2c(Nc3ccc(Cl)nc3)nccc2c1 (centres unmarked) [Example 176, 6-(2-amino-2,3-dimethylbutoxy)-N-(6-chloropyridin-3-yl)isoquinolin-1-amine hydrochloride]	10 to 30 µM
COC1(COc2ccc3c(Nc4ccc(Cl)nc4)nccc3c2)CC1 [Example 177, N-(6-chloropyridin-3-yl)-6-((1-methoxycyclopropyl)methoxy)isoquinolin-1-amine]	< 1 µM
COC1(COc2ccc3c(Nc4cnc(C)nc4)nccc3c2)CC1 [Example 178, 6-((1-methoxycyclopropyl)methoxy)-N-(2-methylpyrimidin-5-yl)isoquinolin-1-amine]	1 to 10 µM
CC1(COc2ccc3c(Nc4ccc(Cl)nc4)nccc3c2)CC1 [Example 179, N-(6-chloropyridin-3-yl)-6-((1-methylcyclopropyl)methoxy)isoquinolin-1-amine]	1 to 10 µM
Clc1ccc(Nc2nccc3cc(OCCC4CC4)ccc23)cn1 [Example 180, N-(6-chloropyridin-3-yl)-6-(2-cyclopropylethoxy)isoquinolin-1-amine]	10 to 30 µM
FC1(COc2ccc3c(Nc4ccc(Cl)nc4)nccc3c2)CC1 [Example 181, N-(6-chloropyridin-3-yl)-6-((1-fluorocyclopropyl)methoxy)isoquinolin-1-amine]	< 1 µM
Clc1ccc(Nc2nccc3cc(OCc4cncnc4)ccc23)cn1 [Example 182, N-(6-chloropyridin-3-yl)-6-(pyrimidin-5-ylmethoxy)isoquinolin-1-amine]	< 1 µM
